Assay results published in patent publication US8901118B2, “Compounds and methods for kinase modulation, and indications therefor” (Plexxikon Inc., priority 2010, dated 2014).

Tests used:
CYP2C19 = CYP2C19 (Homo sapiens, UniProt P33261); test: CYP2C19 inhibition (fluorescent substrate CEC); assay type: in vitro ADME; conditions: read-out: Cyp IC50 2C19
Method in brief: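 Compounds, serially diluted 1:1 over 10 points in NADPH-regenerating cofactor mix with 5% acetonitrile, were preincubated 10 min at 37 °C, then run with enzyme and substrate at 37 °C (CYP1A2 15 min; CYP2C9 45 min; CYP2C19, CYP2D6 30 min). Product fluorescence gave IC50s.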

BCR-NTRK2 BaF3 cells = biological target: T1, BCR-NTRK2 BaF3 cells (Homo sapiens, UniProt Q16620); test: BaF3 BCR-NTRK2 cell proliferation assay (ATPlite); assay type: cell-based; conditions: read-out: Inhibition of Cell Proliferation IC50, BCR/BaF3 TrkB
T1 construct: fused on or other part: P11274 (Breakpoint cluster region protein)
T1 sequence (Q16620 538-807): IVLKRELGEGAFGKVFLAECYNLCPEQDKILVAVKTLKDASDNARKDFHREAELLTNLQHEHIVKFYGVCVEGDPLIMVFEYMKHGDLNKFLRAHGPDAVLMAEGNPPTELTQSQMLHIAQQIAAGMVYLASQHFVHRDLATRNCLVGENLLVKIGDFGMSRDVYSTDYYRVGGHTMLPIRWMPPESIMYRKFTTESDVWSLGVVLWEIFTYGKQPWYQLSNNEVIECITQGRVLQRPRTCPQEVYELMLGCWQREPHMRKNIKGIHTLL
Method in brief: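 Growth inhibition over 3 days at 37 °C; IC50 from ATPlite luminescence, 8 concentrations (1:3 steps, max 10 μM). BaF3 fusion lines were tested without IL-3.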

Chain of CYP2C19 (P33261 whole entry): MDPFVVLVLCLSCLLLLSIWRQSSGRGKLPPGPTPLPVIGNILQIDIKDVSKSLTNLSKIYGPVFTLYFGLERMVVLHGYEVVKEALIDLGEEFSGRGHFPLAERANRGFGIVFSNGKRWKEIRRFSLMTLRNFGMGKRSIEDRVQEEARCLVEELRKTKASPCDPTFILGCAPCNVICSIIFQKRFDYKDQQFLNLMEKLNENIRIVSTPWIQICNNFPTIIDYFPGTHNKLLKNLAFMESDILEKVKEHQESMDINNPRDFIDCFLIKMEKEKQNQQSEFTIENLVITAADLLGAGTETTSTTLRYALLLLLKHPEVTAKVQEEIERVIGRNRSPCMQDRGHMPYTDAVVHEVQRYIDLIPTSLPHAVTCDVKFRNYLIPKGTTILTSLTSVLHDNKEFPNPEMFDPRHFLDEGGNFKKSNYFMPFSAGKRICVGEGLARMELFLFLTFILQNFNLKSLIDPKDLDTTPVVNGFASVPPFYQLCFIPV

Cc1cnc2[nH]cc(Cc3ccc(Nc4ccc(C)nc4)nc3F)c2c1 [Compound P-3041, [6-Fluoro-5-(5-methyl-1H-pyrrolo[2,3-b]pyridin-3-ylmethyl)-pyridin-2-yl]-(6-methyl-pyridin-3-yl)-amine]
IC50 (CYP2C19): > 10 µM
IC50 (BCR-NTRK2 BaF3 cells): < 1 µM

COc1ncnc2[nH]cc(Cc3ccc(Nc4ccc(C5CC5)nc4)nc3F)c12 [Compound P-4004, (6-Cyclopropyl-pyridin-3-yl)-[6-fluoro-5-(4-methoxy-7H-pyrrolo[2,3-d]pyrimidin-5-ylmethyl)-pyridin-2-yl]-amine]
IC50 (CYP2C19): > 10 µM
IC50 (BCR-NTRK2 BaF3 cells): < 0.01 µM

COc1ncnc2[nH]cc(Cc3ccc(Nc4ccc(C)nc4)nc3F)c12 [Compound P-4010, [6-Fluoro-5-(4-methoxy-7H-pyrrolo[2,3-d]pyrimidin-5-ylmethyl)-pyridin-2-yl]-(6-methyl-pyridin-3-yl)-amine]
IC50 (CYP2C19): > 10 µM
IC50 (BCR-NTRK2 BaF3 cells): < 0.1 µM

CCn1cc(Nc2ccc(Cc3c[nH]c4ncnc(C5CC5)c34)c(F)n2)cn1 [Compound P-4036, [5-(4-Cyclopropyl-7H-pyrrolo[2,3-d]pyrimidin-5-ylmethyl)-6-fluoro-pyridin-2-yl]-(1-ethyl-1H-pyrazol-4-yl)-amine]
IC50 (CYP2C19): 5 to 10 µM
IC50 (BCR-NTRK2 BaF3 cells): < 0.1 µM

CCn1cc(Nc2ccc(C(=O)c3c[nH]c4ncnc(C5CC5)c34)c(F)n2)cn1 [Compound P-4037, (4-Cyclopropyl-7H-pyrrolo[2,3-d]pyrimidin-5-yl)-[6-(1-ethyl-1H-pyrazol-4-ylamino)-2-fluoro-pyridin-3-yl]-methanone]
IC50 (CYP2C19): > 10 µM

Cc1ccc(Nc2ccc(Cc3c[nH]c4ncnc(C5CC5)c34)c(F)n2)cn1 [Compound P-4030, [5-(4-Cyclopropyl-7H-pyrrolo[2,3-d]pyrimidin-5-ylmethyl)-6-fluoro-pyridin-2-yl]-(6-methyl-pyridin-3-yl)-amine]
IC50 (CYP2C19): 5 to 10 µM
IC50 (BCR-NTRK2 BaF3 cells): < 0.1 µM

COCCOc1ncnc2[nH]cc(Cc3ccc(Nc4ccc(C)nc4)nc3F)c12 [Compound P-4015, {6-Fluoro-5-[4-(2-methoxy-ethoxy)-7H-pyrrolo[2,3-d]pyrimidin-5-ylmethyl]-pyridin-2-yl}-(6-methyl-pyridin-3-yl)-amine]
IC50 (CYP2C19): > 10 µM
IC50 (BCR-NTRK2 BaF3 cells): < 1 µM

Fc1nc(Nc2ccc(C3CC3)nc2)ccc1Cc1c[nH]c2ncccc12 [Compound P-3053, (6-Cyclopropyl-pyridin-3-yl)-[6-fluoro-5-(1H-pyrrolo[2,3-b]pyridin-3-ylmethyl)-pyridin-2-yl]-amine]
IC50 (CYP2C19): > 10 µM

CCOc1ccc(Nc2ccc(Cc3c[nH]c4ncc(C)cc34)c(F)n2)cn1 [Compound P-3039, (6-ethoxy-pyridin-3-yl)-[6-fluoro-5-(5-methyl-1H-pyrrolo[2,3-b]pyridin-3-ylmethyl)-pyridin-2-yl]-amine]
IC50 (CYP2C19): > 10 µM
IC50 (BCR-NTRK2 BaF3 cells): < 1 µM

Fc1nc(NC2CCC(F)(F)CC2)ccc1Cc1c[nH]c2ncnc(NC3CC3)c12 [Compound P-4129, N-cyclopropyl-5-[[6-[(4,4-difluorocyclohexyl)amino]-2-fluoro-3-pyridyl]methyl]-7H-pyrrolo[2,3-d]pyrimidin-4-amine]
IC50 (CYP2C19): > 10 µM
IC50 (BCR-NTRK2 BaF3 cells): < 0.1 µM

Cc1cnc2[nH]cc(C(=O)c3ccc(Nc4ccc(C5CC5)nc4)nc3F)c2c1 [Compound P-3051, [6-(6-Cyclopropyl-pyridin-3-ylamino)-2-fluoro-pyridin-3-yl]-(5-methyl-1H-pyrrolo[2,3-b]pyridin-3-yl)-methanone]
IC50 (CYP2C19): > 10 µM

Clc1cnc2[nH]cc(Cc3cnc(NC4CCCCCC4)nc3)c2c1 [Compound P-3006, [5-(5-Chloro-1H-pyrrolo[2,3-b]pyridin-3-ylmethyl)-pyrimidin-2-yl]-cycloheptyl-amine]
IC50 (CYP2C19): > 10 µM
IC50 (BCR-NTRK2 BaF3 cells): > 10 µM

COc1ccc(Nc2ccc(Cc3c[nH]c4ncnc(OC)c34)c(F)n2)cn1 [Compound P-4001, [6-Fluoro-5-(4-methoxy-7H-pyrrolo[2,3-d]pyrimidin-5-ylmethyl)-pyridin-2-yl]-(6-methoxy-pyridin-3-yl)-amine]
IC50 (CYP2C19): < 5 µM
IC50 (BCR-NTRK2 BaF3 cells): < 0.1 µM

Cc1ccc(Nc2ccc(C(=O)c3c[nH]c4ncnc(C5CC5)c34)c(F)n2)cn1 [Compound P-4031, (4-Cyclopropyl-7H-pyrrolo[2,3-d]pyrimidin-5-yl)-[2-fluoro-6-(6-methyl-pyridin-3-ylamino)-pyridin-3-yl]-methanone]
IC50 (CYP2C19): > 10 µM
IC50 (BCR-NTRK2 BaF3 cells): < 0.01 µM

Fc1nc(Nc2ccc(C3CC3)nc2)ccc1Cc1c[nH]c2ncnc(NCC(F)(F)F)c12 [Compound P-4130, 5-[[6-[(6-cyclopropyl-3-pyridyl)amino]-2-fluoro-3-pyridyl]methyl]-N-(2,2,2-trifluoroethyl)-7H-pyrrolo[2,3-d]pyrimidin-4-amine]
IC50 (CYP2C19): < 5 µM
IC50 (BCR-NTRK2 BaF3 cells): < 0.01 µM

CCc1ccc(Nc2ccc(C(=O)c3c[nH]c4ncc(C)cc34)c(F)n2)cn1 [Compound P-3049, [6-(6-Ethyl-pyridin-3-ylamino)-2-fluoro-pyridin-3-yl]-(5-methyl-1H-pyrrolo[2,3-b]pyridin-3-yl)-methanone]
IC50 (CYP2C19): > 10 µM

Clc1cnc2[nH]cc(Cc3cnc(NC4CCCCC4)nc3)c2c1 [Compound P-3001, [5-(5-chloro-1H-pyrrolo[2,3-b]pyridin-3-ylmethyl)-pyrimidin-2-yl]-cyclohexyl-amine]
IC50 (CYP2C19): > 10 µM
IC50 (BCR-NTRK2 BaF3 cells): > 10 µM

COc1ccc(Nc2ccc(Cc3c[nH]c4ncc(C)cc34)c(F)n2)cn1 [Compound P-3019, [6-fluoro-5-(5-methyl-1H-pyrrolo[2,3-b]pyridin-3-ylmethyl)-pyridin-2-yl]-(6-methoxy-pyridin-3-yl)-amine]
IC50 (CYP2C19): < 5 µM
IC50 (BCR-NTRK2 BaF3 cells): < 0.1 µM

COc1ccc(Nc2ccc(C(=O)c3c[nH]c4ncnc(C5CC5)c34)c(F)n2)cn1 [Compound P-4022, (4-cyclopropyl-7H-pyrrolo[2,3-d]pyrimidin-5-yl)-[2-fluoro-6-(6-methoxy-pyridin-3-ylamino)-pyridin-3-yl]-methanone]
IC50 (CYP2C19): 5 to 10 µM
IC50 (BCR-NTRK2 BaF3 cells): < 0.01 µM

CCc1ccc(Nc2ccc(Cc3c[nH]c4ncnc(OC)c34)c(F)n2)cn1 [Compound P-4007, (6-Ethyl-pyridin-3-yl)-[6-fluoro-5-(4-methoxy-7H-pyrrolo[2,3-d]pyrimidin-5-ylmethyl)-pyridin-2-yl]-amine]
IC50 (CYP2C19): > 10 µM
IC50 (BCR-NTRK2 BaF3 cells): < 0.1 µM

CCOc1ccc(Nc2ccc(Cc3c[nH]c4ncnc(C)c34)c(F)n2)cn1 [Compound P-4006, (6-Ethoxy-pyridin-3-yl)-[6-fluoro-5-(4-methyl-7H-pyrrolo[2,3-d]pyrimidin-5-ylmethyl)-pyridin-2-yl]-amine]
IC50 (CYP2C19): > 10 µM
IC50 (BCR-NTRK2 BaF3 cells): < 0.01 µM

CCOc1ccc(Nc2ccc(Cc3c[nH]c4ncnc(OC)c34)c(F)n2)cn1 [Compound P-4005, (6-Ethoxy-pyridin-3-yl)-[6-fluoro-5-(4-methoxy-7H-pyrrolo[2,3-d]pyrimidin-5-ylmethyl)-pyridin-2-yl]-amine]
IC50 (CYP2C19): > 10 µM
IC50 (BCR-NTRK2 BaF3 cells): < 0.01 µM

Cc1cnc2[nH]cc(Cc3cnc(Nc4ccc(C(F)(F)F)nc4)nc3)c2c1 [Compound P-3018, [5-(5-Methyl-1H-pyrrolo[2,3-b]pyridin-3-ylmethyl)-pyrimidin-2-yl]-(6-trifluoromethyl-pyridin-3-yl)-amine]
IC50 (CYP2C19): > 10 µM
IC50 (BCR-NTRK2 BaF3 cells): < 0.1 µM

CCn1cc(Nc2ccc(Cc3c[nH]c4ncnc(OC)c34)c(F)n2)cn1 [Compound P-4011, (1-Ethyl-1H-pyrazol-4-yl)-[6-fluoro-5-(4-methoxy-7H-pyrrolo[2,3-d]pyrimidin-5-ylmethyl)-pyridin-2-yl]-amine]
IC50 (CYP2C19): > 10 µM
IC50 (BCR-NTRK2 BaF3 cells): < 1 µM

O=C(c1ccc(Nc2ccc(C3CC3)nc2)nc1F)c1c[nH]c2ncccc12 [Compound P-3052, [6-(6-Cyclopropyl-pyridin-3-ylamino)-2-fluoro-pyridin-3-yl]-(1H-pyrrolo[2,3-b]pyridin-3-yl)-methanone]
IC50 (CYP2C19): 5 to 10 µM

CCc1ccc(Nc2ccc(Cc3c[nH]c4ncc(C)cc34)c(F)n2)cn1 [Compound P-3048, (6-Ethyl-pyridin-3-yl)-[6-fluoro-5-(5-methyl-1H-pyrrolo[2,3-b]pyridin-3-ylmethyl)-pyridin-2-yl]-amine]
IC50 (CYP2C19): < 5 µM

COc1ccc(Nc2ncc(Cc3c[nH]c4ncc(C)cc34)cn2)cn1 [Compound P-3020, (6-Methoxy-pyridin-3-yl)-[5-(5-methyl-1H-pyrrolo[2,3-b]pyridin-3-ylmethyl)-pyrimidin-2-yl]-amine]
IC50 (BCR-NTRK2 BaF3 cells): < 0.1 µM

Cc1cnc2[nH]cc(Cc3ccc(Nc4ccc(C5CC5)nc4)nc3F)c2c1 [Compound P-3050, (6-Cyclopropyl-pyridin-3-yl)-[6-fluoro-5-(5-methyl-1H-pyrrolo[2,3-b]pyridin-3-ylmethyl)-pyridin-2-yl]-amine]
IC50 (CYP2C19): > 10 µM

Cc1cnc2[nH]cc(Cc3cnc(Nc4cc(C(F)(F)F)n[nH]4)nc3)c2c1 [Compound P-3037, [5-(5-Methyl-1H-pyrrolo[2,3-b]pyridin-3-ylmethyl)-pyrimidin-2-yl]-(5-trifluoromethyl-2H-pyrazol-3-yl)-amine]
IC50 (BCR-NTRK2 BaF3 cells): > 10 µM

CCn1cc(Nc2ncc(Cc3c[nH]c4ncc(C)cc34)cn2)cn1 [Compound P-3036, (1-Ethyl-1H-pyrazol-4-yl)-[5-(5-methyl-1H-pyrrolo[2,3-b]pyridin-3-ylmethyl)-pyrimidin-2-yl]-amine]
IC50 (BCR-NTRK2 BaF3 cells): < 1 µM

Cc1cnc2[nH]cc(Cc3cnc(Nc4cc(OC(C)C)n[nH]4)nc3)c2c1 [Compound P-3038, (5-Isopropoxy-2H-pyrazol-3-yl)-[5-(5-methyl-1H-pyrrolo[2,3-b]pyridin-3-ylmethyl)-pyrimidin-2-yl]-amine]
IC50 (BCR-NTRK2 BaF3 cells): > 1 µM

COc1ccccc1Nc1ncc(Cc2c[nH]c3ncc(Cl)cc23)cn1 [Compound P-3016, [5-(5-Chloro-1H-pyrrolo[2,3-b]pyridin-3-ylmethyl)-pyrimidin-2-yl]-(2-methoxy-phenyl)-amine]
IC50 (BCR-NTRK2 BaF3 cells): > 10 µM
